According to ChEMBL document CHEMBL4387737, “Synthesis of Isosteviol analogues as potential protective agents against Doxorubicin-induced cardiomyopathy in zebrafish embryos” (Bioorg Med Chem Lett, 2019):
The source made the active and inactive calls. No cut-off for these calls is given here.

Tests used:
[1] = test system: Danio rerio; experiment: Cytoprotection in myl7:EGFP transgenic zebra fish embryo assessed as reduction in DOX-induced lethal toxicity by measuring LC50 dosed at 24 hpf and measured 96 hpf (reference value: 51.56 uM); assay type: functional
[2] = Toxicity in myl7:EGFP transgenic zebra fish embryo assessed as reduction in survival rate dosed at 24 hpf and measured 96 hpf; assay type: organism-based, Danio rerio; conditions: zebrafish, in vivo
[3] = test system: Danio rerio; experiment: Cardioprotective activity in myl7:EGFP transgenic zebra fish embryo assessed as decrease in DOX-induced pericardial edema at 100 uM dosed at 24 hpf and measured 72 hpf by fluorescent microscopy; assay type: functional, organism-based
[4] = test system: Danio rerio; experiment: Cardioprotective activity in myl7:EGFP transgenic zebra fish embryo assessed as decrease in DOX-induced morphological changes at 100 uM dosed at 24 hpf and measured 72 hpf by fluorescent microscopy; assay type: functional, organism-based
[5] = test system: Danio rerio; experiment: Cardioprotective activity in myl7:EGFP transgenic zebra fish embryo assessed as decrease in DOX-induced cardiac dysfunction at 100 uM dosed at 24 hpf and measured 72 hpf by fluorescent microscopy; assay type: functional, organism-based
[6] = test system: Danio rerio; experiment: Cardioprotective activity in myl7:EGFP transgenic zebra fish embryo assessed as recovery of in DOX-induced shortening fraction at 100 uM dosed at 24 hpf and measured 72 hpf by fluorescent microscopy; assay type: functional, organism-based
[7] = test system: Danio rerio; experiment: Cardioprotective activity in myl7:EGFP transgenic zebra fish embryo assessed as recovery of in DOX-induced heart rate impairment at 100 uM dosed at 24 hpf and measured 72 hpf by fluorescent microscopy; assay type: functional, organism-based
[8] = Toxicity in myl7:EGFP transgenic zebra fish embryo assessed as reduction in survival rate at 25 to 100 uM dosed at 24 hpf and measured 96 hpf; assay type: organism-based, Danio rerio; conditions: zebrafish, in vivo

Compound | Activity [1] | LD [2] [µM] | LC50 [1] [µM] | Activity [3] | Activity [4] | Activity [5] | Activity [6] | Activity [7] | Activity [8]
C[C@@]12CC[C@@H]3[C@@](CC[C@H]4[C@@]3(C)CCC[C@@]4(C)C(=O)OCCCCCCCCO)(C[C@H]1O)C2 | inactive | 50 to 100 |  |  |  |  |  |  | 
C[C@]12CC[C@H]3[C@]4(C)CCC[C@@](C)(C(=O)O)[C@H]4CC[C@@]3(C1)[C@H](C(=O)O)[C@H]2O |  |  | 66.62 | Active | Active | Active | Active | Active | Non-Toxic
C[C@@]12CC[C@@H]3[C@@](CC[C@H]4[C@@]3(C)CCC[C@@]4(C)C(=O)OCCCCCCCC(=O)O)(C[C@H]1O)C2 | inactive | 50 to 100 |  |  |  |  |  |  | 
C[C@]12CC[C@H]3[C@]4(C)CCC[C@@](C)(C(=O)O)[C@H]4CC[C@@]3(C1)[C@H](C=O)[C@H]2O |  |  | 92.61 | Active | Active | Active | Active | Active | Non-Toxic
C[C@]12CC[C@H]3[C@]4(C)CCC[C@@](C)(C(=O)O)[C@H]4CC[C@@]3(C1)[C@H](CO)C2=O |  |  | 74.83 | inactive | inactive | inactive | inactive | inactive | Non-Toxic
C[C@]12CC[C@H]3[C@]4(C)CCC[C@@](C)(C(=O)O)[C@H]4CC[C@@]3(C1)[C@H](C=O)C2=O |  |  |  | inactive | inactive | inactive | inactive | inactive | Non-Toxic
C[C@]12CC[C@H]3[C@]4(C)CCC[C@@](C)(C(=O)O)[C@H]4CC[C@@]3(C1)[C@H](CO)[C@H]2O |  |  | 68.5 | Active | Active | Active | Active | Active | Non-Toxic
C[C@@]12CC[C@@H]3[C@@](CC[C@H]4[C@@]3(C)CCC[C@@]4(C)C(=O)OCCCCCC(=O)O)(C[C@H]1O)C2 | inactive | 50 to 100 |  |  |  |  |  |  | 
C[C@@]12CC[C@@H]3[C@@](CC[C@H]4[C@@]3(C)CCC[C@@]4(C)C(=O)OCCO)(C[C@H]1O)C2 | inactive |  |  |  |  |  |  |  | 
C[C@@]12CC[C@@H]3[C@@](CC[C@H]4[C@@]3(C)CCC[C@@]4(C)C(=O)OCCCCCCO)(C[C@H]1O)C2 | inactive | 50 to 100 |  |  |  |  |  |  | 
